Tested on: Plasmodium berghei
Experiment: Luciferase/luciferin-expressing antifolate-resistant parasites were used to infect a culture of HepG2 cells that were pre-incubated with compounds. Infected hepatocytes emit light due to the luciferase reaction. Assay results are presented as the percent inhibition of light emission compared to control. […]
Assay type: functional
Conditions: sporozoite; for IC90: read-out: LUCIFERASE INFECTION ASSAY - IC90
[1] = read-out: LUCIFERASE INFECTION ASSAY - IC50

SMILES	IC90 [µM]	IC50 [1] [µM]	other results
Cc1nn(C)c(Cl)c1/C=N/Nc1ccc([N+](=O)[O-])cc1S(=O)(=O)Nc1ccc(Cl)cc1	> 10	–	IC50 (HEPG2TOX_HILL_SLOPE 1.82, HEPG2TOX_R_SQUARED 0.852, PBLUC_HILL_SLOPE 13.6, PBLUC_R_SQUARED 0.455, read-out: LUCIFERASE INFECTION ASSAY - IC50): 9.47 µM
CC(=O)c1sc(SCCS(=O)(=O)c2ccc(Cl)cc2)c2c1CCCC2=O	> 7.69	–	IC50 (HEPG2TOX_HILL_SLOPE 4.99, HEPG2TOX_R_SQUARED 0.387, PBLUC_HILL_SLOPE 14.8, PBLUC_R_SQUARED 0.11, read-out: LUCIFERASE INFECTION ASSAY - IC50): > 7.69 µM
COC(=O)c1sccc1NC(=O)N(C)Cc1ccc(C)cc1C	> 10	–	IC50 (PBLUC_HILL_SLOPE 2.81, PBLUC_R_SQUARED 0.305, read-out: LUCIFERASE INFECTION ASSAY - IC50): 6.58 µM
O=C1NC2(CCCc3ccccc32)C(=O)N1Cc1cc2ccccc2nc1Cl (configuration not stated)	9.89	–	IC50 (FFLUC_HILL_SLOPE 2.55, FFLUC_R_SQUARED 0.444, HEPG2TOX_HILL_SLOPE 2.36, HEPG2TOX_R_SQUARED 0.953, PBLUC_HILL_SLOPE 3.3, PBLUC_R_SQUARED 0.364, read-out: LUCIFERASE INFECTION ASSAY - IC50): 5.08 µM
COc1ccc(CC(N)c2csc(NC(=O)c3cc(C(C)(C)C)oc3C)n2)cc1 (configuration not stated)	4.39	2.91	–
CC(C)Oc1cccc(-c2cn3c(-c4ccc(C(=O)NC5CC5)cc4)cnc3cn2)c1	7.18	–	IC50 (PBLUC_HILL_SLOPE 5.31, PBLUC_R_SQUARED 0.43, read-out: LUCIFERASE INFECTION ASSAY - IC50): 4.75 µM
Cc1cc(-c2onc(C)c2C(=O)Sc2ccccc2)no1	> 11	–	IC50 (FFLUC_HILL_SLOPE 12.1, FFLUC_R_SQUARED 0.567, PBLUC_HILL_SLOPE 1.05, PBLUC_R_SQUARED 0.41, read-out: LUCIFERASE INFECTION ASSAY - IC50): > 11 µM
O=C1c2ccccc2S(=O)(=O)N1c1ccccc1F	> 10	> 10	–
N#C/C(=C\c1sc(N2CCCCC2)nc1-c1ccccc1)c1nnc2n1CCCCC2	> 10	> 10	–
O=C(NCCCc1nc2ccccc2[nH]1)c1[nH]nc2ccccc12	1.48	–	IC50 (HEPG2TOX_HILL_SLOPE 1.95, 1.49, HEPG2TOX_R_SQUARED 0.808, 0.974, PBLUC_HILL_SLOPE 11.3, 2.85, PBLUC_R_SQUARED 0.579, 0.589, read-out: LUCIFERASE INFECTION ASSAY - IC50): 0.947 µM
Cc1cc(C2=NNC(=NC(C)(C)C)SC2)c(C)n1-c1ccccc1	> 10	–	IC50 (FFLUC_HILL_SLOPE 3.44, FFLUC_R_SQUARED 0.101, read-out: LUCIFERASE INFECTION ASSAY - IC50): > 10 µM
CCN(CC(=O)Nc1ccccc1-c1ccccc1)Cc1nc(O)c2ccccc2n1	7.89	–	IC50 (FFLUC_HILL_SLOPE 18, FFLUC_R_SQUARED 0.273, HEPG2TOX_HILL_SLOPE 1.8, HEPG2TOX_R_SQUARED 0.962, PBLUC_HILL_SLOPE 1.44, PBLUC_R_SQUARED 0.751, read-out: LUCIFERASE INFECTION ASSAY - IC50): 1.72 µM
CN(C)CCCNc1cc(N(C)C)c(N)c2c1C(=O)c1ccccc1C2=O	> 9.01	–	IC50 (PBLUC_HILL_SLOPE 0.553, PBLUC_R_SQUARED 0.182, read-out: LUCIFERASE INFECTION ASSAY - IC50): > 9.01 µM
O=C(NCC#Cc1cccc(C(F)(F)F)c1)c1[nH]nc2ccccc12	> 10	–	IC50 (FFLUC_HILL_SLOPE 1.72, FFLUC_R_SQUARED 0.47, read-out: LUCIFERASE INFECTION ASSAY - IC50): > 10 µM
CCCCCc1c(C(=O)OCC)[nH]c(C)c1C	> 13.9	–	IC50 (HEPG2TOX_HILL_SLOPE 1.75, HEPG2TOX_R_SQUARED 0.784, PBLUC_HILL_SLOPE 1.37, PBLUC_R_SQUARED 0.743, read-out: LUCIFERASE INFECTION ASSAY - IC50): 5.49 µM
Cc1[nH]c2ccc(C(=O)OC(C)C(=O)NCc3ccccc3)cc2c1C (configuration not stated)	8.96	3.57	–
C/C(N)=C(/C#N)C(=O)COC(=O)c1cc(-c2cccc3ccccc23)nc2ccccc12	> 10	> 10	–
CCC(C(=O)Nc1nc(C)c(Cc2ccc3c(c2)OCO3)s1)c1ccccc1 (configuration not stated)	> 10	> 10	–
Cc1ccc2nc(NC(=O)c3ccccc3C)c(C(=O)NCC(C)C)n2c1	9	–	IC50 (HEPG2TOX_HILL_SLOPE 2.35, HEPG2TOX_R_SQUARED 0.51, PBLUC_HILL_SLOPE 14.9, PBLUC_R_SQUARED 0.347, read-out: LUCIFERASE INFECTION ASSAY - IC50): 7.76 µM
COc1ccc(C)cc1C(C)NC(=O)c1cnn(Cc2ccccc2)c1 (configuration not stated)	> 10	> 10	–
O=C(Nc1nc(CN2CCOCC2)cs1)c1ccccc1Nc1ccccc1	> 10	> 10	–

SMILES	IC90 [µM]	IC50 [1] [µM]	other results
CCN(CC)CCn1c(NC(=O)c2cc(C(C)=O)c[nH]2)nc2ccccc21	> 10	1.82	–
O=C(Nc1cc(Cl)cc(Cl)c1)c1cc(Cl)ccc1O	1.1	–	IC50 (HEPG2TOX_HILL_SLOPE 1.87, HEPG2TOX_R_SQUARED 0.915, PBLUC_HILL_SLOPE 2.8, PBLUC_R_SQUARED 0.713, read-out: LUCIFERASE INFECTION ASSAY - IC50): 0.502 µM
CCn1c(C)nc2cc(C(=O)NNS(=O)(=O)c3cccc(Cl)c3Cl)ccc21.O=S(=O)(O)c1cccc(Cl)c1Cl	> 10	> 10	–
O=C(NCc1cn2ccccc2n1)c1cccc(S(=O)(=O)N2CCc3ccccc3C2)c1	> 10	> 10	–
CC(C)(C)c1ccc(C(=O)NCCOc2ccccc2F)cc1	0.642	–	IC50 (FFLUC_HILL_SLOPE 1.22, FFLUC_R_SQUARED 0.498, PBLUC_HILL_SLOPE 0.635, PBLUC_R_SQUARED 0.572, read-out: LUCIFERASE INFECTION ASSAY - IC50): 0.0201 µM
O=C(Nc1ccc(OC(F)(F)F)cc1)Sc1ccc(Cl)s1	> 9.33	–	IC50 (FFLUC_HILL_SLOPE 30.4, FFLUC_R_SQUARED 0.438, HEPG2TOX_HILL_SLOPE 8.9, HEPG2TOX_R_SQUARED 0.733, PBLUC_HILL_SLOPE 2, PBLUC_R_SQUARED 0.693, read-out: LUCIFERASE INFECTION ASSAY - IC50): 3.61 µM
CC1CCN(C(=O)COc2ccc(C(C)C)cc2Br)CC1	8.51	–	IC50 (HEPG2TOX_HILL_SLOPE 9.85, HEPG2TOX_R_SQUARED 0.75, PBLUC_HILL_SLOPE 15.1, PBLUC_R_SQUARED 0.202, read-out: LUCIFERASE INFECTION ASSAY - IC50): 7.36 µM
N#Cc1ccc(C=C2C(=O)Nc3ccccc3NC2=O)cc1	> 10	> 10	–
CC(=O)c1cccc(-c2cnc3ccc(-c4ccc(F)cc4)nn23)c1	4.45	–	IC50 (HEPG2TOX_HILL_SLOPE 2.73, HEPG2TOX_R_SQUARED 0.88, PBLUC_HILL_SLOPE 3.37, PBLUC_R_SQUARED 0.558, read-out: LUCIFERASE INFECTION ASSAY - IC50): 2.32 µM
Nc1ncnc(N/N=C/c2ccc(O)cc2O)c1[N+](=O)[O-]	> 10	–	IC50 (FFLUC_HILL_SLOPE 17.8, FFLUC_R_SQUARED 0.491, HEPG2TOX_HILL_SLOPE 1.97, HEPG2TOX_R_SQUARED 0.831, read-out: LUCIFERASE INFECTION ASSAY - IC50): > 10 µM
OCCNCc1cc(Cl)ccc1OCc1ccc(Cl)cc1Cl	> 8.31	–	IC50 (HEPG2TOX_HILL_SLOPE 0.0281, HEPG2TOX_R_SQUARED 0.0269, read-out: LUCIFERASE INFECTION ASSAY - IC50): > 8.31 µM
CNc1nc2cnc(Nc3cccc(C(C)C)c3)cc2n1Cc1ccco1	> 10	> 10	–
N#Cc1c(OCC(F)(F)F)ccc(Sc2ccc(C(F)(F)F)cn2)c1OCC(F)(F)F	> 6.93	5.5	–
COc1ccc(-c2cnc3cnc(-c4cccc(F)c4)cn23)cc1	7.12	–	IC50 (HEPG2TOX_HILL_SLOPE 2.64, HEPG2TOX_R_SQUARED 0.99, PBLUC_HILL_SLOPE 1.99, PBLUC_R_SQUARED 0.779, read-out: LUCIFERASE INFECTION ASSAY - IC50): 2.36 µM
CN(C)c1ccc(C(=O)/C=C/c2ccccc2C(F)(F)F)cc1	3.94	–	IC50 (HEPG2TOX_HILL_SLOPE 2.82, HEPG2TOX_R_SQUARED 0.851, PBLUC_HILL_SLOPE 15.9, PBLUC_R_SQUARED 0.328, read-out: LUCIFERASE INFECTION ASSAY - IC50): 3.43 µM
Cc1ccc(S(=O)(=O)Nc2ccc(Oc3ccc(Cl)cc3)cc2)cc1	> 8.83	–	IC50 (FFLUC_HILL_SLOPE 2.59, FFLUC_R_SQUARED 0.0226, PBLUC_HILL_SLOPE 17.9, PBLUC_R_SQUARED 0.275, read-out: LUCIFERASE INFECTION ASSAY - IC50): 8.28 µM
Clc1ccc(-c2cnc3cnc(-c4ccc(NCCN5CCOCC5)nc4)cn23)cc1	7.4	–	IC50 (HEPG2TOX_HILL_SLOPE 7.91, HEPG2TOX_R_SQUARED 0.577, PBLUC_HILL_SLOPE 49, PBLUC_R_SQUARED 0.381, read-out: LUCIFERASE INFECTION ASSAY - IC50): 7.08 µM
Cc1ccc(-c2csc(NC(=O)/C=C/c3cnn(C)c3)n2)o1	4.35	–	IC50 (HEPG2TOX_HILL_SLOPE 1.69, HEPG2TOX_R_SQUARED 0.984, PBLUC_HILL_SLOPE 1.61, PBLUC_R_SQUARED 0.8, read-out: LUCIFERASE INFECTION ASSAY - IC50): 1.11 µM
CCC(C)(C)NC(=O)CSc1nnc(/C=C/c2ccccc2C)[nH]1	> 10	> 10	–
c1ccc(-n2ncc3c(N4CCCC4c4ccc5c(c4)OCCO5)ncnc32)cc1 (configuration not stated)	> 10	–	IC50 (HEPG2TOX_HILL_SLOPE 2.6, HEPG2TOX_R_SQUARED 0.193, PBLUC_HILL_SLOPE 3.44, PBLUC_R_SQUARED 0.735, read-out: LUCIFERASE INFECTION ASSAY - IC50): 7.29 µM

Source: ChEMBL document CHEMBL4483862, “Open-source discovery of chemical leads for next-generation chemoprotective antimalarials” (2018)
